Series [1] has as its system P388. In words: Antitumor activity against mouse P388 cells allografted in DBA/2 mouse assessed as survival rate at 48 mg/kg relative to control. Type of series: functional.
For series [2], the system named is W256. The series can be described thus: Antitumor activity against rat Walker 256 cells allografted in Sprague-Dawley rat assessed as survival rate at 2.5 mg/kg relative to control. Type of series: functional.
Series [3] in a line: Cytotoxicity against human Hep2 cells assessed as growth inhibition by microtiter method. To be noted: HEp-2, read-out: ED50 (the source's name). Type of series: functional.
In series [4] the test system is P388. In words: Antitumor activity against mouse P388 cells allografted in DBA/2 mouse assessed as survival rate at 25 mg/kg relative to control. Type of series: functional.
The subject of series [5] is P388. In words: Antitumor activity against mouse P388 cells allografted in DBA/2 mouse assessed as survival rate at 10 mg/kg relative to control. The series is classed as functional.
Series [6] concerns P388. The series can be described thus: Antitumor activity against mouse P388 cells allografted in DBA/2 mouse assessed as survival rate at 4 mg/kg relative to control. Type of series: functional.
Series [7] is described as follows: Toxicity in Sprague-Dawley rat allografted with rat Walker 256 cells assessed as mortality after 4 days. Type of series: organism-based. To be noted: read-out: MNTD.
The nature of series [8]: Toxicity in DBA/2 mouse allografted with mouse P388 cells assessed as mortality after 4 days. Type of series: organism-based. To be noted: read-out: MNTD.
Series [9] concerns P388. The series can be described thus: Antitumor activity against mouse P388 cells allografted in DBA/2 mouse assessed as survival rate at 16.8 mg/kg relative to control. Type of series: functional.

From ChEMBL document CHEMBL3244430, “Antitumor agents. 31. Helenalin sym-dimethylethylenediamine reaction products and related derivatives” (J Med Chem, 1978) come the findings set out here.

Each structure is given as a SMILES string.

The T/C is the result in the treated group divided by that in the control group, in per cent. In the case of `C[C@@H]1C[C@H]2OC(=O)[C@@H](C)[C@H]2[C@H](O)[C@]2(C)C(=O)C=C[C@@H]12`, the T/C in series [1] was found to be 138%; in [2], 207%. Moreover, in series [3], the EC50 is 0.81 µg/mL.

Take `C[C@@H]1C[C@H]2OC(=O)C(CN(C)C)[C@H]2[C@H](O)[C@]2(C)C(=O)C=C[C@@H]12` (some centres undefined): the T/C in series [4] amounted to 130%. In addition, the EC50 in series [3] was determined as 0.6 µg/mL.

Consider `C[C@@H]1C[C@@H](O)[C@@H]([C@H]2CN(C)CCN(C)C2=O)[C@H](O)[C@]2(C)C(=O)C=C[C@@H]12`, for which the T/C in series [2] came to 170%; in series [4], 126%. In addition, the EC50 in series [3] was determined as 1.87 µg/mL.

Turning to `CC(=O)O[C@H]1[C@H](C2CN(C)CCN(C)C2=O)[C@H](O)C[C@@H](C)[C@@H]2C=CC(=O)[C@]21C` (some centres undefined), the T/C in series [4] is reported as 100%. In series [3], the EC50 was 4.96 µg/mL.

On to `CC(=O)O[C@H]1[C@H](C2CN(C)CCN(C)C2=O)[C@H](OC(=O)/C=C/c2ccccc2)C[C@@H](C)[C@@H]2C=CC(=O)[C@]21C` (some centres undefined), for which, in series [4], the T/C is 102%. In addition, the EC50 in [3] is 0.84 µg/mL.

Regarding `C[C@@H]1C[C@@H](OC(=O)/C=C/c2ccccc2)[C@@H](C2CN(C)CCN(C)C2=O)[C@H](O)[C@]2(C)C(=O)C=C[C@@H]12` (some centres undefined), the EC50 in series [3] worked out at 2.89 µg/mL. Moreover, in [5], the T/C is on record as 123%.

As to `C[C@@H]1C[C@@H](OC(=O)/C=C/c2ccccc2)[C@@H](C2CN(C)CCN(C)C2=O)[C@H](OC(=O)/C=C/c2ccccc2)[C@]2(C)C(=O)C=C[C@@H]12` (some centres undefined), the T/C in [2] is on record as 288%; in series [5], 100%. In addition, the EC50 in series [3] was 0.75 µg/mL.

`C[C@@H]1C[C@H]2OC(=O)C(CN(C)C)[C@H]2[C@H](O)[C@]2(C)C(=O)CC(N(C)C)[C@@H]12` (some centres undefined): the T/C in series [2] is 136%; in series [5] it was 102%. For the same compound, the EC50 in [3] was determined as 0.85 µg/mL.

Consider `C=C1C(=O)O[C@@H]2C[C@@H](C)[C@@H]3C=CC(=O)[C@@]3(C)[C@@H](OC(=O)/C=C/c3ccccc3)[C@H]12`, for which the T/C in [2] is 157%; in [6], 123%. The EC50 in series [3] worked out at 0.04 µg/mL.

For `C[C@@H]1C[C@H]2OC(=O)C(CN(C)C)[C@H]2[C@H](O)[C@]2(C)C(O)CC[C@@H]12` (some centres undefined), the EC50 in series [3] worked out at 3.69 µg/mL.

Turning to `C=C1C(=O)O[C@@H]2C[C@@H](C)[C@@H]3C=CC(=O)[C@@]3(C)[C@@H](OC(C)=O)[C@H]12` [ANGUSTIBALIN], the T/C in series [4] is on record as 78%. In series [3], the EC50 worked out at 0.29 µg/mL.

Regarding `O=c1[nH]cc(F)c(=O)[nH]1` [FLUOROURACIL], in series [4], the T/C is reported as 186%.

As for `C=C1C(=O)O[C@@H]2C[C@@H](C)[C@@H]3C=CC(=O)[C@@]3(C)[C@@H](O)[C@H]12` [HELENALIN], the results for the MTD at 96 h in series [7] and in series [8] were 2.5 mg/kg and 16.8 mg/kg, respectively. Besides, the T/C was 316% in series [2] and 127% in series [9]. Further, the EC50 in series [3] worked out at 0.08 µg/mL.

`N[C@@H](Cc1ccc(N(CCCl)CCCl)cc1)C(=O)O` [MELPHALAN]: the T/C came out at 317% in series [2] and 168% in series [4].
